Experimental data published in patent publication US20240188561A1, “ADDITIVES FOR ENHANCING THE PESTICIDAL EFFECTIVENESS OF PESTICIDAL MICROORGANISMS” (priority 2021, published 2024).

What was measured:
Pseudomonas fluorescens = test: Additive compatibility with microbial growth (growth slope by OD 620 nm); type: cell-based; settings: additive 0.01-5 %, exposed 4 hours at 16° C., then tryptic soy broth 30° C., slope compared to 0% sample
Bacillus subtilis = test: as above; type: cell-based; settings: additive 0.01-5 %, exposed 4 hours at 16° C., then tryptic soy broth 30° C., slope compared to 0% sample
Bacillus firmus = test: as above; type: cell-based; settings: additive 0.01-5 %, exposed 4 hours at 16° C., then tryptic soy broth 30° C., slope compared to 0% sample
[1] = system: Bacillus amyloliquefaciens; test: as above; type: cell-based; settings: additive 0.01-5 %, exposed 4 hours at 16° C., then tryptic soy broth 30° C., slope compared to 0% sample
[2] = system: Powdery Mildew (Podosphaera xanthii); test: Spray trial on pumpkin plants, Powdery Mildew infection; type: in vivo; settings: in words
Procedure: Eight solutions were prepared as described in Table 5a. These solutions were sprayed on pumpkin plants showing no signs of Powdery Mildew (Podosphaera xanthii). […] Six of the solutions included methyl soyate.
Four applications were made over a month to the same pumpkin plants. At the end of the month, the infection rates of Powdery Mildew were evaluated by comparing to untreated pumpkin plants.

[3] = system: Downy Mildew (Plasmopara viticola); test: Spray trial on first year grape vines, Downy Mildew infection; type: in vivo; settings: in words
Procedure: Eight solutions were prepared as described in Table 2a. These solutions were sprayed on first year grape vines showing no signs of Downy Mildew (Plasmopara viticola). […] Six of the solutions included Additive Blend 1 (a 50:50 blend of POE 10 soybean oil and PEG 400 dioleate).
Four applications were made over a month to the same grape vines. At the end of the month, the infection rates of Downy Mildew were evaluated by comparing to untreated grape vines.
Eight solutions were prepared as described in Table 6a. These solutions were sprayed on first year grape vines showing no signs of Downy Mildew (Plasmopara viticola). […] Six of the solutions included PEG 400 dioleate.

## Soya fatty acid methyl ester [ii-3]
Pseudomonas fluorescens
  Influence of additive on microbial growth slope (compatibility), Pseudomonas fluorescens: N
Bacillus subtilis
  Influence of additive on microbial growth slope (compatibility), Bacillus subtilis: N
Bacillus firmus
  Influence of additive on microbial growth slope (compatibility), Bacillus firmus: N
[1]
  Influence of additive on microbial growth slope (compatibility), Bacillus amyloliquefaciens: E (E represents an Enhancing result)
[2]
  Control of Powdery Mildew (lower %-Infection) when additive was added to Serifel Biofungicide spray solutions: improved control

## PEG 400 dioleate [v-3]
Pseudomonas fluorescens
  Influence of additive on microbial growth slope (compatibility), Pseudomonas fluorescens: E (E represents an Enhancing result)
Bacillus subtilis
  Influence of additive on microbial growth slope (compatibility), Bacillus subtilis: E (E represents an Enhancing result)
Bacillus firmus
  Influence of additive on microbial growth slope (compatibility), Bacillus firmus: E (E represents an Enhancing result)
[1]
  Influence of additive on microbial growth slope (compatibility), Bacillus amyloliquefaciens: E (E represents an Enhancing result)
[3]
  Control of Downy Mildew (lower %-Infection) when additive was added to Serifel Biofungicide spray solutions: improved control

## C8-C10 dimethyl amide [xv-2]
Pseudomonas fluorescens
  Influence of additive on microbial growth slope (compatibility), Pseudomonas fluorescens: S
Bacillus subtilis
  Influence of additive on microbial growth slope (compatibility), Bacillus subtilis: S
Bacillus firmus
  Influence of additive on microbial growth slope (compatibility), Bacillus firmus: S
[1]
  Influence of additive on microbial growth slope (compatibility), Bacillus amyloliquefaciens: S

## Tridecyl alcohol POE 10 phosphate ester [xix-1]
Pseudomonas fluorescens
  Influence of additive on microbial growth slope (compatibility), Pseudomonas fluorescens: S
Bacillus subtilis
  Influence of additive on microbial growth slope (compatibility), Bacillus subtilis: S
Bacillus firmus
  Influence of additive on microbial growth slope (compatibility), Bacillus firmus: S
[1]
  Influence of additive on microbial growth slope (compatibility), Bacillus amyloliquefaciens: S

## Sodium Lauryl ether sulfate [xvii-1]
Pseudomonas fluorescens
  Influence of additive on microbial growth slope (compatibility), Pseudomonas fluorescens: S
Bacillus subtilis
  Influence of additive on microbial growth slope (compatibility), Bacillus subtilis: S
Bacillus firmus
  Influence of additive on microbial growth slope (compatibility), Bacillus firmus: S
[1]
  Influence of additive on microbial growth slope (compatibility), Bacillus amyloliquefaciens: S
